Molecules are shown by their SMILES. pIC50: −log10 of the molar value.

Here are results for 13 compounds from US12662489B2 (Sitryx Therapeutics Limited, priority 2023, dated 2026).

For experiment [1], the target named is T1, MTHFD1 recombinant human enzyme (Homo sapiens, UniProt P11586).
T1 sequence (P11586 2-291 limits assumed): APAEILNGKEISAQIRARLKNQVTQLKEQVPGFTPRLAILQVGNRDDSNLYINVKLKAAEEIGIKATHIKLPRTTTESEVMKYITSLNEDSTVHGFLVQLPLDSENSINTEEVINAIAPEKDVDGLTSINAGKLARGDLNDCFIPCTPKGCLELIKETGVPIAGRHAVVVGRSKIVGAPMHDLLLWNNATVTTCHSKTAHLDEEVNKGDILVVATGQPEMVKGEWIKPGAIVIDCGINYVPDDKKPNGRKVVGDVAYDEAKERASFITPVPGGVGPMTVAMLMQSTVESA
The experiment can be described thus: MTHFD1 inhibition assay (NAD(P)H-Glo luminescence). Particulars: MTHFD1 IC50, recombinant human enzyme 200 nM, NADP, band.

A further experiment relates to human CD4+ T cells. The experiment can be described thus: Human CD4+ T-cell proliferation assay (CFSE, CD3/28 beads). Particulars: read-out: Proliferation IC50.
Experiment [2] concerns the target T2, MTHFD2 recombinant human enzyme (Homo sapiens, UniProt P13995).
T2 sequence (P13995 36-350): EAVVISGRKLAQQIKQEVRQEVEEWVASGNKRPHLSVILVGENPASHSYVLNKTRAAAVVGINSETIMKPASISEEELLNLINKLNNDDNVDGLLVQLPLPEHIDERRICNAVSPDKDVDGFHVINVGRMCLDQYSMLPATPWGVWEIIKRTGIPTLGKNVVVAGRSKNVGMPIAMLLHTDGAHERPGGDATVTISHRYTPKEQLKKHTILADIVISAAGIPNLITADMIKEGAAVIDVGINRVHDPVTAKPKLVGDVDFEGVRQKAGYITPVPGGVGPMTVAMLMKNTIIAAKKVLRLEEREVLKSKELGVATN
Nature of the experiment: MTHFD2 inhibition assay (NAD(P)H-Glo luminescence). Particulars: for MTHFD1/MTHFD2 IC50 ratio: selectivity of MTHFD2 inhibition over MTHFD1, band.

As for `COC[C@H]1CN(c2cc(C)c3c4c(c(=O)oc3c2C)CN(C(=O)c2cc(OC)c(C(=O)NS(=O)(=O)N3CCCC3)cc2F)CC4)CCN1C` [Example 224, (R)-5-fluoro-2-methoxy-4-(8-(3-(methoxymethyl)-4-methylpiperazin-1-yl)-7,10-dimethyl-5-oxo-1,3,4,5-tetrahydro-2H-chromeno[3,4-c]pyridine-3-carbonyl)-N-(pyrrolidin-1-ylsulfonyl)benzamide], the pIC50 in experiment [1] is 6.00 to 7.00; with human CD4+ T cells, 7.00 to 7.52; in experiment [2], 8.00 to 9.00. Further, the “MTHFD1/MTHFD2 IC50 ratio” value in experiment [2] is given as “J (>30)”.

For `COC[C@H]1CN(c2cc(C)c3c4c(c(=O)oc3c2C)CN(C(=O)c2cc(N(C)C)c(C(=O)NS(=O)(=O)N3CCC[C@H]3C(F)(F)F)cc2F)CC4)CCN1C` [Example 292, 2-(dimethylamino)-5-fluoro-4-(8-((R)-3-(methoxymethyl)-4-methylpiperazin-1-yl)-7,10-dimethyl-5-oxo-1,3,4,5-tetrahydro-2H-chromeno[3,4-c]pyridine-3-carbonyl)-N-(((S)-2-(trifluoromethyl)pyrrolidin-1-yl)sulfonyl)benzamide], the values for the pIC50 (in experiment [1]; in the experiment with human CD4+ T cells; in experiment [2]) were 6.00 to 7.00, 8.00 to 9.00 and 7.00 to 8.00, respectively. Also, the “MTHFD1/MTHFD2 IC50 ratio” value in experiment [2] is recorded as “J (>30)”.

For `COC[C@H]1CN(c2cc(C)c3c4c(c(=O)oc3c2C)CN(C(=O)c2cc(N(C)C)c(C(=O)NS(=O)(=O)C3(C)CC3)cc2Cl)CC4)CCN1C` [Example 151, (R)-5-chloro-2-(dimethylamino)-4-(8-(3-(methoxymethyl)-4-methylpiperazin-1-yl)-7,10-dimethyl-5-oxo-1,3,4,5-tetrahydro-2H-chromeno[3,4-c]pyridine-3-carbonyl)-N-((1-methylcyclopropyl)sulfonyl)benzamide], the pIC50 in experiment [1] is 5.30 to 6.00; in the experiment on human CD4+ T cells, 6.00 to 7.00; in experiment [2], 7.00 to 8.00. In addition, in experiment [2], the “MTHFD1/MTHFD2 IC50 ratio” value was “J (>30)”.

Turning to `COC[C@H]1CN(c2cc(C)c3c4c(c(=O)oc3c2C)CN(C(=O)c2cc(N)c(C(=O)NS(=O)(=O)N3CCCC3)cc2F)CC4)CCN1C` [Example 196, (R)-2-amino-5-fluoro-4-(8-(3-(methoxymethyl)-4-methylpiperazin-1-yl)-7,10-dimethyl-5-oxo-1,3,4,5-tetrahydro-2H-chromeno[3,4-c]pyridine-3-carbonyl)-N-(pyrrolidin-1-ylsulfonyl)benzamide], the figures for the pIC50 (in experiment [1]; in the experiment with human CD4+ T cells; in experiment [2]) were 5.30 to 6.00, < 5.30 and 7.00 to 8.00, respectively. In addition, the “MTHFD1/MTHFD2 IC50 ratio” value in experiment [2] is reported as “J (>30)”.

As to `COC[C@H]1CN(c2cc(C)c3c4c(c(=O)oc3c2C)CN(C(=O)c2cc(OC3CCC3)c(C(=O)NS(=O)(=O)C3(C)CC3)c(C(F)(F)F)c2)CC4)CCN1C` [Example 130, (R)-2-cyclobutoxy-4-(8-(3-(methoxymethyl)-4-methylpiperazin-1-yl)-7,10-dimethyl-5-oxo-1,3,4,5-tetrahydro-2H-chromeno[3,4-c]pyridine-3-carbonyl)-N-((1-methylcyclopropyl)sulfonyl)-6-(trifluoromethyl)benzamide], the pIC50 in experiment [1] is 5.30 to 6.00; with human CD4+ T cells, 5.30 to 6.00; in experiment [2] it was 7.00 to 8.00. In experiment [2], the “MTHFD1/MTHFD2 IC50 ratio” value is recorded as “J (>30)”.

In the case of `[2H]C([2H])([2H])Oc1cc(C(=O)N2CCc3c(c(=O)oc4c(C)c(N5CCN(C)[C@@H](COC)C5)cc(Cl)c34)C2)c(F)cc1C(=O)NS(=O)(=O)N1CC2CC2C1` (stereo partly drawn) [Example 327, N-((3-azabicyclo[3.1.0]hexan-3-yl)sulfonyl)-4-(10-chloro-8-((R)-3-(methoxymethyl)-4-methylpiperazin-1-yl)-7-methyl-5-oxo-1,3,4,5-tetrahydro-2H-chromeno[3,4-c]pyridine-3-carbonyl)-5-fluoro-2-(methoxy-d3)benzamide], the pIC50 is 6.00 to 7.00 in experiment [1], 6.00 to 7.00 in the experiment with human CD4+ T cells and 8.00 to 9.00 in experiment [2]. Also, the “MTHFD1/MTHFD2 IC50 ratio” value in experiment [2] was “J (>30)”.

For the compound `CCOc1cc(C(=O)N2CCc3c(c(=O)oc4c(C)c(N5CCN(C)[C@@H](COC)C5)cc(C)c34)C2)c(F)cc1C(=O)NS(=O)(=O)N1CC[C@H](F)C1` [Example 268, 2-ethoxy-5-fluoro-N-(((S)-3-fluoropyrrolidin-1-yl)sulfonyl)-4-(8-((R)-3-(methoxymethyl)-4-methylpiperazin-1-yl)-7,10-dimethyl-5-oxo-1,3,4,5-tetrahydro-2H-chromeno[3,4-c]pyridine-3-carbonyl)benzamide], the values for the pIC50 (in experiment [1]; in the experiment on human CD4+ T cells; in experiment [2]) were 6.00 to 7.00, 8.00 to 9.00 and 8.00 to 9.00, respectively. Besides, in experiment [2], the “MTHFD1/MTHFD2 IC50 ratio” value was “J (>30)”.

Consider `COC[C@H]1CN(c2cc(C)c3c4c(c(=O)oc3c2C)CN(C(=O)c2cc(N(C)C)c(C(=O)NS(=O)(=O)N3CCC[C@H](OC)C3)cc2F)CC4)CCN1C` [Example 281, 2-(dimethylamino)-5-fluoro-4-(8-((R)-3-(methoxymethyl)-4-methylpiperazin-1-yl)-7,10-dimethyl-5-oxo-1,3,4,5-tetrahydro-2H-chromeno[3,4-c]pyridine-3-carbonyl)-N-(((S)-3-methoxypiperidin-1-yl)sulfonyl)benzamide], for which the pIC50 was 6.00 to 7.00 in experiment [1], 8.00 to 9.00 in the experiment with human CD4+ T cells and 7.00 to 8.00 in experiment [2]. Further, the “MTHFD1/MTHFD2 IC50 ratio” value in experiment [2] is listed as “H (>9.0 to 30)”.

With `COC[C@H]1CN(c2cc(C)c3c4c(c(=O)oc3c2C)CN(C(=O)c2ccc(C(=O)NS(=O)(=O)N3C[C@H]5CCC[C@H]5C3)cc2)CC4)CCN1C` [Example 210, N-(((3aR,6a S)-hexahydrocyclopenta[c]pyrrol-2(1H)-yl)sulfonyl)-4-(8-((R)-3-(methoxymethyl)-4-methylpiperazin-1-yl)-7,10-dimethyl-5-oxo-1,3,4,5-tetrahydro-2H-chromeno[3,4-c]pyridine-3-carbonyl)benzamide], the figures for the pIC50 (in experiment [1]; in the experiment on human CD4+ T cells; in experiment [2]) were 5.30 to 6.00, < 5.30 and 7.00 to 8.00, respectively. Moreover, the “MTHFD1/MTHFD2 IC50 ratio” value in experiment [2] is reported as “J (>30)”.

Consider `CCOc1cc(C(=O)N2CCc3c(c(=O)oc4c(C)c(N5CCN(C)[C@@H](COC)C5)cc(C)c34)C2)c(F)cc1C(=O)NS(=O)(=O)N1C[C@@H]2C[C@H]1CO2` [Example 267, N-(((1S,4S)-2-oxa-5-azabicyclo[2.2.1]heptan-5-yl)sulfonyl)-2-ethoxy-5-fluoro-4-(8-((R)-3-(methoxymethyl)-4-methylpiperazin-1-yl)-7,10-dimethyl-5-oxo-1,3,4,5-tetrahydro-2H-chromeno[3,4-c]pyridine-3-carbonyl)benzamide], for which the pIC50 in experiment [1] is 6.00 to 7.00; in the experiment with human CD4+ T cells it was 6.00 to 7.00; in experiment [2], 8.00 to 9.00. In experiment [2], the “MTHFD1/MTHFD2 IC50 ratio” value is on record as “J (>30)”.

As for `COC[C@H]1CN(c2cc(Cl)c3c4c(c(=O)oc3c2C)CN(C(=O)c2cc(F)c(C(=O)NS(=O)(=O)N3CCCC3)cc2OC)CC4)CCN1C` [Example 319, (R)-4-(10-chloro-8-(3-(methoxymethyl)-4-methylpiperazin-1-yl)-7-methyl-5-oxo-1,3,4,5-tetrahydro-2H-chromeno[3,4-c]pyridine-3-carbonyl)-2-fluoro-5-methoxy-N-(pyrrolidin-1-ylsulfonyl)benzamide], the pIC50 is 5.30 to 6.00 in experiment [1], 6.00 to 7.00 in the experiment with human CD4+ T cells and 7.00 to 8.00 in experiment [2]. Besides, in experiment [2], the “MTHFD1/MTHFD2 IC50 ratio” value was “J (>30)”.

For the compound `COC[C@H]1CN(c2cc(Cl)c3c4c(c(=O)oc3c2C)CN(C(=O)c2cc(N(C)C)c(C(=O)NS(=O)(=O)N3C5CCC3COC5)cc2F)CC4)CCN1C` [Example 322, N-((3-oxa-8-azabicyclo[3.2. 1]octan-8-yl)sulfonyl)-4-(10-chloro-8-((R)-3-(methoxymethyl)-4-methylpiperazin-1-yl)-7-methyl-5-oxo-1,3,4,5-tetrahydro-2H-chromeno[3,4-c]pyridine-3-carbonyl)-2-(dimethylamino)-5-fluorobenzamide], the pIC50 in experiment [1] is 5.30 to 6.00; in the experiment with human CD4+ T cells it was 7.00 to 7.52; in experiment [2], 8.00 to 9.00. Also, the “MTHFD1/MTHFD2 IC50 ratio” value in experiment [2] is “J (>30)”.

As to `COC[C@H]1CN(c2cc(C)c3c4c(c(=O)oc3c2C)CN(C(=O)c2cc(F)c(C(=O)NS(=O)(=O)N3CCCC3)cc2C)CC4)CCN1C` [Example 270, (R)-2-fluoro-4-(8-(3-(methoxymethyl)-4-methylpiperazin-1-yl)-7,10-dimethyl-5-oxo-1,3,4,5-tetrahydro-2H-chromeno[3,4-c]pyridine-3-carbonyl)-5-methyl-N-(pyrrolidin-1-ylsulfonyl)benzamide], the pIC50 was 5.30 to 6.00 in experiment [1], 5.30 to 6.00 with human CD4+ T cells and 8.00 to 9.00 in experiment [2]. For the same compound, in experiment [2], the “MTHFD1/MTHFD2 IC50 ratio” value is given as “J (>30)”.
